Measurements from the supplement of paper PMC4932681.

Legend:
T-47D [1] = assay: relative IC50 (midpoint of fitted logistic curve, plateau may be below 50% inhibition; CellTiter-Glo viability); higher = less potent; settings: 72 h
How it was run: (§1)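 Breast cancer cell lines and their resistant derivatives were seeded into 384-well plates containing library drugs at five concentrations across a 10 000-fold range, with resistant lines kept in medium with 1 μM of the selecting drug. After 72 h at 37 °C, CellTiter-Glo viability was read on a PHERAstar and normalised to vehicle-only and positive controls. Logistic dose–response fits in the Breeze pipeline gave drug sensitivity score, relative IC50 (curve midpoint) and top-dose inhibition.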

MCF-7 Tam1 [2] = assay: as above; settings: 4-OH-tamoxifen in medium 1 µM; 72 h
How it was run: as §1

ZR-75-1 [3] = assay: as above; settings: 72 h
How it was run: as §1

BT-474 Tam2 [4] = assay: as above; settings: 4-OH-tamoxifen in medium 1 µM; 72 h
How it was run: as §1

BT-474 Tam1 [5] = assay: as above; settings: 4-OH-tamoxifen in medium 1 µM; 72 h
How it was run: as §1

T-47D Tam2 [6] = assay: as above; settings: 4-OH-tamoxifen in medium 1 µM; 72 h
How it was run: as §1

ZR-75-1 Tam2 [7] = assay: as above; settings: 4-OH-tamoxifen in medium 1 µM; 72 h
How it was run: as §1

ZR-75-1 Tam1 [8] = assay: as above; settings: 4-OH-tamoxifen in medium 1 µM; 72 h
How it was run: as §1

BT-474 [9] = assay: as above; settings: 72 h
How it was run: as §1

MCF-7 [10] = assay: as above; settings: 72 h
How it was run: as §1

T-47D Tam1 [11] = assay: as above; settings: 4-OH-tamoxifen in medium 1 µM; 72 h
How it was run: as §1

T-47D [12] = assay: drug sensitivity score (DSS) (DSS (dimensionless)); higher = more sensitive; extreme values may be limits of the assay; settings: 72 h
How it was run: as §1

MCF-7 Tam1 [13] = assay: as above; settings: 4-OH-tamoxifen in medium 1 µM; 72 h
How it was run: as §1

ZR-75-1 [14] = assay: as above; settings: 72 h
How it was run: as §1

BT-474 Tam2 [15] = assay: as above; settings: 4-OH-tamoxifen in medium 1 µM; 72 h
How it was run: as §1

BT-474 Tam1 [16] = assay: as above; settings: 4-OH-tamoxifen in medium 1 µM; 72 h
How it was run: as §1

T-47D Tam2 [17] = assay: as above; settings: 4-OH-tamoxifen in medium 1 µM; 72 h
How it was run: as §1

ZR-75-1 Tam2 [18] = assay: as above; settings: 4-OH-tamoxifen in medium 1 µM; 72 h
How it was run: as §1

ZR-75-1 Tam1 [19] = assay: as above; settings: 4-OH-tamoxifen in medium 1 µM; 72 h
How it was run: as §1

BT-474 [20] = assay: as above; settings: 72 h
How it was run: as §1

MCF-7 [21] = assay: as above; settings: 72 h
How it was run: as §1

T-47D Tam1 [22] = assay: as above; settings: 4-OH-tamoxifen in medium 1 µM; 72 h
How it was run: as §1

Compound	relative IC50 (T-47D [1]; 4-OH-tamoxifen in medium 0 µM)	relative IC50 (T-47D [1]; 4-OH-tamoxifen in medium 1 µM)	relative IC50 (MCF-7 Tam1 [2])	relative IC50 (BT-474 Tam2 [4])	relative IC50 (BT-474 Tam1 [5])	relative IC50 (T-47D Tam2 [6])	relative IC50 (BT-474 [9]; 4-OH-tamoxifen in medium 0 µM)	relative IC50 (BT-474 [9]; 4-OH-tamoxifen in medium 1 µM)	relative IC50 (MCF-7 [10]; 4-OH-tamoxifen in medium 0 µM)	relative IC50 (MCF-7 [10]; 4-OH-tamoxifen in medium 1 µM)	relative IC50 (T-47D Tam1 [11])	relative IC50 (ZR-75-1 [3]; 4-OH-tamoxifen in medium 0 µM)	relative IC50 (ZR-75-1 [3]; 4-OH-tamoxifen in medium 1 µM)	relative IC50 (ZR-75-1 Tam2 [7])	relative IC50 (ZR-75-1 Tam1 [8])	drug sensitivity score (T-47D [12]; 4-OH-tamoxifen in medium 0 µM)	drug sensitivity score (T-47D [12]; 4-OH-tamoxifen in medium 1 µM)	drug sensitivity score (MCF-7 Tam1 [13])	drug sensitivity score (ZR-75-1 [14]; 4-OH-tamoxifen in medium 0 µM)	drug sensitivity score (ZR-75-1 [14]; 4-OH-tamoxifen in medium 1 µM)	drug sensitivity score (BT-474 Tam2 [15])	drug sensitivity score (BT-474 Tam1 [16])	drug sensitivity score (T-47D Tam2 [17])	drug sensitivity score (ZR-75-1 Tam2 [18])	drug sensitivity score (ZR-75-1 Tam1 [19])	drug sensitivity score (BT-474 [20]; 4-OH-tamoxifen in medium 0 µM)	drug sensitivity score (BT-474 [20]; 4-OH-tamoxifen in medium 1 µM)	drug sensitivity score (MCF-7 [21]; 4-OH-tamoxifen in medium 0 µM)	drug sensitivity score (MCF-7 [21]; 4-OH-tamoxifen in medium 1 µM)	drug sensitivity score (T-47D Tam1 [22])
COc1cccc2c1C(=O)c1c(O)c3c(c(O)c1C2=O)C[C@@](O)(C(C)=O)C[C@@H]3O[C@H]1C[C@H](N)[C@H](O)[C@H](C)O1 [Daunorubicin]	0.134 µM	0.35 µM	0.341 µM	0.393 µM	0.398 µM	0.282 µM	0.385 µM	0.375 µM	0.208 µM	0.189 µM	0.133 µM	0.138 µM	0.124 µM	0.15 µM	0.164 µM	7.41	3.69	1.34	6.15	5.38	1.15	3.18	4.19	6.6	5.81	2.33	4.51	6.15	7.3	6.95
CC(C)(C#N)c1cc(Cn2cncn2)cc(C(C)(C)C#N)c1 [Anastrozole]	> 10 µM	> 10 µM	> 10 µM	> 10 µM	> 10 µM	> 10 µM	> 10 µM	> 10 µM	> 10 µM	> 10 µM	> 10 µM	> 10 µM	> 10 µM	> 10 µM	> 10 µM	0	0	0	0	0	0	0	0	0	0	0	0	0	0	0
Oc1ncc(N(CCCl)CCCl)c(O)n1 [Uracil mustard]	> 10 µM	> 10 µM	> 10 µM	> 10 µM	> 10 µM	> 10 µM	> 10 µM	> 10 µM	> 10 µM		> 10 µM	> 10 µM	> 10 µM	> 10 µM	> 10 µM	0	0	0	0	0	0	0	0	0	0	0	0	0	0.208	0
C[C@@H](Oc1cc(-c2cnn(C3CCNCC3)c2)cnc1N)c1c(Cl)ccc(F)c1Cl [Crizotinib]	> 1 µM	> 1 µM	> 1 µM	> 1 µM	> 1 µM	> 1 µM	> 1 µM	> 1 µM	> 1 µM	> 1 µM	> 1 µM	> 1 µM	> 1 µM	> 1 µM	> 1 µM	0	0	0	0	0	0	0	0	0	0	0	0	0	0	0

Second part, led by results:

relative IC50 (T-47D [1]; 4-OH-tamoxifen in medium 0 µM)	relative IC50 (T-47D [1]; 4-OH-tamoxifen in medium 1 µM)	relative IC50 (MCF-7 Tam1 [2])	relative IC50 (BT-474 Tam2 [4])	relative IC50 (BT-474 Tam1 [5])	relative IC50 (T-47D Tam2 [6])	relative IC50 (BT-474 [9]; 4-OH-tamoxifen in medium 0 µM)	relative IC50 (BT-474 [9]; 4-OH-tamoxifen in medium 1 µM)	relative IC50 (MCF-7 [10]; 4-OH-tamoxifen in medium 0 µM)	relative IC50 (MCF-7 [10]; 4-OH-tamoxifen in medium 1 µM)	relative IC50 (T-47D Tam1 [11])	Compound	relative IC50 (ZR-75-1 [3]; 4-OH-tamoxifen in medium 0 µM)	relative IC50 (ZR-75-1 [3]; 4-OH-tamoxifen in medium 1 µM)	relative IC50 (ZR-75-1 Tam2 [7])	relative IC50 (ZR-75-1 Tam1 [8])	drug sensitivity score (T-47D [12]; 4-OH-tamoxifen in medium 0 µM)	drug sensitivity score (T-47D [12]; 4-OH-tamoxifen in medium 1 µM)	drug sensitivity score (MCF-7 Tam1 [13])	drug sensitivity score (ZR-75-1 [14]; 4-OH-tamoxifen in medium 0 µM)	drug sensitivity score (ZR-75-1 [14]; 4-OH-tamoxifen in medium 1 µM)	drug sensitivity score (BT-474 Tam2 [15])	drug sensitivity score (BT-474 Tam1 [16])	drug sensitivity score (T-47D Tam2 [17])	drug sensitivity score (ZR-75-1 Tam2 [18])	drug sensitivity score (ZR-75-1 Tam1 [19])	drug sensitivity score (BT-474 [20]; 4-OH-tamoxifen in medium 0 µM)	drug sensitivity score (BT-474 [20]; 4-OH-tamoxifen in medium 1 µM)	drug sensitivity score (MCF-7 [21]; 4-OH-tamoxifen in medium 0 µM)	drug sensitivity score (MCF-7 [21]; 4-OH-tamoxifen in medium 1 µM)	drug sensitivity score (T-47D Tam1 [22])
> 10 µM		> 10 µM	> 10 µM	> 10 µM	> 10 µM	> 10 µM	> 10 µM	> 10 µM	> 10 µM	> 10 µM	O=C1CCC(N2C(=O)c3ccccc3C2=O)C(=O)N1 (stereo not drawn) [Thalidomide]	> 10 µM		> 10 µM	> 10 µM	0	0	0	0	0.0754	0	0	0	0	0	0	0	0	0	0
> 10 µM	> 10 µM	> 10 µM	> 10 µM	> 10 µM	> 10 µM	> 10 µM	> 10 µM	> 10 µM	> 10 µM	> 10 µM	O=C(O)C(=O)O.[NH-][C@@H]1CCCC[C@H]1[NH-].[Pt+2] [Oxaliplatin]	> 10 µM	> 10 µM	> 10 µM	> 10 µM	0	0	0	0	0	0	0	0	0	0	0	0	0	0	0
> 10 µM		> 10 µM	> 10 µM	> 10 µM	> 10 µM	> 10 µM	> 10 µM	> 10 µM		> 10 µM	Nc1nc2[nH]cc(CCc3ccc(C(=O)N[C@@H](CCC(=O)O)C(=O)O)cc3)c2c(=O)[nH]1 [Pemetrexed]	> 10 µM	> 10 µM	> 10 µM	> 10 µM	0	0	0	0	0	0	0	0	0	0	0	0	0	0.305	0
> 100 µM	> 100 µM	> 100 µM	> 100 µM	> 100 µM	> 100 µM	> 100 µM		> 100 µM		> 100 µM	NC(=O)NO [Hydroxyurea]	> 100 µM	> 100 µM	> 100 µM	> 100 µM	0	0	0	0	0	0	0	0	0	0	0	0.154	0	0	0
